Experimental data published in patent publication US9211313B2, “Methods and compound to inhibit Ca2+ permeable cation conductance” (priority 2011, dated 2015).

Assays:
red cell = assay type: cell-based; conditions: data not shown
[1] = system: Berkeley sickle mouse red cells; experiment: Fluo-3 fluorescence measurement of [Ca2+]i during deoxygenation, Berkeley cells; assay type: cell-based; conditions: 1 μM bath preincubation
Description: Blood was withdrawn by cardiac puncture or from the tail vein of C57B16/J wildtype mice, SAD sickle mice, or Berkeley sickle mice into heparinized syringes by IACUC-approved protocols of Beth Israel Deaconess Medical Center. Buffy coat-depleted cells were washed 5 times in standard mouse red cell wash solution containing (in mM) 172 choline Cl, 10 sucrose, 10 Na Tris-MOPS, pH 7.4, resuspended in storage solution, and kept at 4° C. until use.
Fluorescence measurements of cytosolic [Ca^2+] […]
Measurement of relative changes in [Ca^2+]i by Fluo-3 fluorescence emission was previously validated in intact human (Yang et al. 2000, Blood, 95(7):2421-2425; Andrews et al. 2002, Blood, 199(9):3392-3399) and mouse red cells (Akel et al. 2007, Amer. J. Physiol., 292(5):C1759-1767). […] Fluorescence emission (proportional to [Ca^2+]i) from a 535ds20 bandpass filter was collected from all attached single cells within the arbitrarily selected visual field. […]
Fluo-3 fluorescence from attached cells on each coverslip was recorded 60 sec in room air and then for 10 min after onset of perfusion chamber flushing with humidified 100% N2. […] The y-axis value of 0% change in Fluo-3 fluorescence intensity represented mean intensity recorded from all cells within the coverslip visual field during the 60 sec prior to deoxygenation.

[2] = system: mechanosensitive channel (MSC); conditions: previously shown; cited from earlier work

## Grammastola spatulata mechanotoxin 4 (GCLEFWWKCNPNDDKCCRPKLKCSKLFKLCNFSF; listed as Grammastola spatulata) [GsMTx-4]
Red cell
  effect on red cell shape: did not alter
[1]
  effect on deoxygenation-increased [Ca2+]i: inhibited nearly completely
[1]; listed as GsMtx-4
  effect on deoxygenation-increased [Ca2+]i: prevented
[2]
  effect on mechanosensitive channel (MSC) activity: block
